Measurements published in PubChem BioAssay AID248 (DTP/NCI, 2004).
Values joined by “and” are separate entries in the source; they are usually repeats but may differ in a detail not shown here. Identical values can stand only once. Toxic doses and inconclusive results are not listed. Cut-off read from the data, not from the text of the source: active = T/C of 150% or more; inactive = T/C below 125%.

Tested on: L1210 leukemia ip in BDF1 mice, survival T/C
Test: NCI In Vivo Anticancer Drug Screen. Data for tumor model L1210 Leukemia (intraperitoneal) in B6D2F1 (BDF1) mice
Conditions: endpoint: mean survival time, higher = longer survival
In short: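 Each compound was tested against a transplantable tumor grown in mice. The endpoint was survival, with treated animals benchmarked against vehicle controls as a simple ratio.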

[1] = dose: 100.0 mg/kg/injection, schedule: Q01DX001 (ip), vehicle: saline
[2] = dose: 100.0 mg/kg/injection, schedule: Q01DX009 (ip), vehicle: saline
[3] = dose: 100.0 mg/kg/injection, schedule: Q04DX003 (ip), vehicle: saline
[4] = dose: 200.0 mg/kg/injection, schedule: Q01DX009 (ip), vehicle: saline
[5] = dose: 200.0 mg/kg/injection, schedule: Q04DX003 (ip), vehicle: saline
[6] = dose: 400.0 mg/kg/injection, schedule: Q01DX009 (ip), vehicle: saline
[7] = dose: 400.0 mg/kg/injection, schedule: Q04DX003 (ip), vehicle: saline
[8] = dose: 200.0 mg/kg/injection, schedule: Q01DX001 (ip), vehicle: saline
[9] = dose: 400.0 mg/kg/injection, schedule: Q01DX001 (ip), vehicle: saline
[10] = dose: 100.0 mg/kg/injection, schedule: Q04DX003 (ip), vehicle: Klucel (hydroxypropylcellulose) (HPC)
[11] = dose: 200.0 mg/kg/injection, schedule: Q04DX003 (ip), vehicle: Klucel (hydroxypropylcellulose) (HPC)
[12] = dose: 400.0 mg/kg/injection, schedule: Q04DX003 (ip), vehicle: Klucel (hydroxypropylcellulose) (HPC)
[13] = dose: 100.0 mg/kg/injection, schedule: Q04DX002 (ip), vehicle: Klucel (hydroxypropylcellulose) (HPC)
[14] = dose: 200.0 mg/kg/injection, schedule: Q04DX002 (ip), vehicle: Klucel (hydroxypropylcellulose) (HPC)
[15] = dose: 400.0 mg/kg/injection, schedule: Q04DX002 (ip), vehicle: Klucel (hydroxypropylcellulose) (HPC)
[16] = dose: 100.0 mg/kg/injection, schedule: Q04DX003 (ip), vehicle: saline with Tween-80
[17] = dose: 200.0 mg/kg/injection, schedule: Q04DX003 (ip), vehicle: saline with Tween-80
[18] = dose: 400.0 mg/kg/injection, schedule: Q04DX003 (ip), vehicle: saline with Tween-80
[19] = dose: 100.0 mg/kg/injection, schedule: Q01DX009 (ip), vehicle: Klucel (hydroxypropylcellulose) (HPC)
[20] = dose: 200.0 mg/kg/injection, schedule: Q01DX009 (ip), vehicle: Klucel (hydroxypropylcellulose) (HPC)

Measured: T/C

Cc1cc(N)c(S)cc1C
inactive: dose: 12.5 mg/kg/injection, schedule: Q04DX002 (ip), vehicle: saline with Tween-80 108 % of control | dose: 25.0 mg/kg/injection, schedule: Q04DX002 (ip), vehicle: saline with Tween-80 90 % of control | dose: 50.0 mg/kg/injection, schedule: Q01DX001 (ip), vehicle: saline 94 % of control | dose: 50.0 mg/kg/injection, schedule: Q04DX002 (ip), vehicle: saline with Tween-80 101 % of control | [1] 91 % of control

CC(=O)OC1CCCC2C(=O)c3c(c(O)c4ccccc4c3O)C(=O)C12 (stereo not given)
inactive: [2] 98 % of control | [3] 96 % of control | [4] 98 % of control | [5] 96 % of control | [6] 101 % of control | [7] 93 % of control

BrC[P+](c1ccccc1)(c1ccccc1)c1ccccc1
inactive: dose: 3.12 mg/kg/injection, schedule: Q04DX002 (ip), vehicle: saline 108 % of control | dose: 6.25 mg/kg/injection, schedule: Q04DX002 (ip), vehicle: saline 104 % of control | dose: 12.5 mg/kg/injection, schedule: Q04DX002 (ip), vehicle: saline 105 % of control and 112 % of control

CC(C)CC(N)C(=O)NCCCl (stereo not given)
inactive: dose: 30.0 mg/kg/injection, schedule: Q01DX Z (ip), vehicle: saline 88 % of control | dose: 100.0 mg/kg/injection, schedule: Q01DX Z (ip), vehicle: saline 102 % of control | dose: 300.0 mg/kg/injection, schedule: Q01DX Z (ip), vehicle: saline 88 % of control

CCCc1c(CC)c(Cl)nc2ccccc12
inactive: [1] 105 % of control | [8] 103 % of control | [9] 91 % of control

CC1(C)CC(Br)C(=O)c2ccccc21 (stereo not given)
inactive: [10] 100 % of control | [11] 105 % of control | [12] 97 % of control

O=C1CC(c2ccccc2)(c2ccccc2)c2cc(-c3ccccc3)c(-c3ccccc3)cc21
inactive: [13] 106 % of control | [14] 103 % of control | [15] 95 % of control

CCOC(=O)C1(C(=O)OCC)COC(=O)C2(CC)OC21 (stereo not given)
inactive: [1] 107 % of control | [8] 98 % of control | [9] 109 % of control

Nc1c(Br)cc(I)cc1C(=O)O
inactive: [13] 108 % of control | [14] 93 % of control | [15] 104 % of control

N#CCCCN1C(=O)c2ccccc2S1(=O)=O
inactive: dose: 44.0 mg/kg/injection, schedule: Q01DX Z (ip), vehicle: methylcellulose (MC) 98 % of control | dose: 66.0 mg/kg/injection, schedule: Q01DX Z (ip), vehicle: methylcellulose (MC) 120 % of control | dose: 100.0 mg/kg/injection, schedule: Q01DX Z (ip), vehicle: methylcellulose (MC) 98 % of control

COc1ccc(OC)c(NC(=O)c2cccc3ccccc23)c1
inactive: dose: 50.0 mg/kg/injection, schedule: Q01DX001 (ip), vehicle: saline with Tween-80 102 % of control | dose: 100.0 mg/kg/injection, schedule: Q01DX001 (ip), vehicle: saline with Tween-80 91 % of control | dose: 100.0 mg/kg/injection, schedule: Q01DX009 (ip), vehicle: saline with Tween-80 93 % of control and 96 % of control | dose: 100.0 mg/kg/injection, schedule: Q04DX002 (ip), vehicle: saline with Tween-80 100 % of control and 91 % of control | [16] 95 % of control | dose: 200.0 mg/kg/injection, schedule: Q01DX001 (ip), vehicle: saline with Tween-80 95 % of control | dose: 200.0 mg/kg/injection, schedule: Q01DX009 (ip), vehicle: saline with Tween-80 105 % of control and 90 % of control | dose: 200.0 mg/kg/injection, schedule: Q04DX002 (ip), vehicle: saline with Tween-80 113 % of control and 91 % of control | [17] 95 % of control | dose: 400.0 mg/kg/injection, schedule: Q01DX009 (ip), vehicle: saline with Tween-80 87 % of control and 91 % of control | dose: 400.0 mg/kg/injection, schedule: Q04DX002 (ip), vehicle: saline with Tween-80 94 % of control and 95 % of control | [18] 94 % of control

c1ccc2c(c1)ccc1c2ccc2cccc[n+]21
inactive: dose: 1.25 mg/kg/injection, schedule: Q01DX001 (ip), vehicle: saline 97 % of control | dose: 2.5 mg/kg/injection, schedule: Q01DX001 (ip), vehicle: saline 97 % of control | dose: 5.0 mg/kg/injection, schedule: Q01DX001 (ip), vehicle: saline 103 % of control | dose: 5.0 mg/kg/injection, schedule: Q01DX015 (ip), vehicle: saline 103 % of control | dose: 10.0 mg/kg/injection, schedule: Q01DX001 (ip), vehicle: saline 107 % of control

CCOC(=O)C(CBr)CBr
inactive: dose: 100.0 mg/kg/injection, schedule: Q04DX002 (ip), vehicle: saline 91 % of control | dose: 200.0 mg/kg/injection, schedule: Q04DX002 (ip), vehicle: saline 88 % of control | dose: 400.0 mg/kg/injection, schedule: Q04DX002 (ip), vehicle: saline 122 % of control

COC(=O)C1CC(OC(C)=O)C(C(N)=O)C1 (stereo not given)
inactive: [2] 101 % of control | [4] 111 % of control | [6] 101 % of control

O=C1NOCC1NCc1c(O)ccc2ccccc12 (stereo not given)
inactive: [16] 87 % of control | [17] 100 % of control | [18] 97 % of control

CC1CCCC1OC(=O)c1ccc([N+](=O)[O-])cc1 (stereo not given)
inactive: dose: 100.0 mg/kg/injection, schedule: Q01DX001 (ip), vehicle: carboxymethylcellulose (CMC) 104 % of control | dose: 200.0 mg/kg/injection, schedule: Q01DX001 (ip), vehicle: carboxymethylcellulose (CMC) 102 % of control | dose: 400.0 mg/kg/injection, schedule: Q01DX001 (ip), vehicle: carboxymethylcellulose (CMC) 93 % of control

CC[CH2][Pb]([CH2]CC)([CH2]CC)[O]C(=O)C1CCCCC1
inactive: dose: 1.5 mg/kg/injection, schedule: Q01DX009 (ip), vehicle: saline with Tween-80 100 % of control | dose: 1.5 mg/kg/injection, schedule: Q04DX003 (ip), vehicle: saline with Tween-80 106 % of control | dose: 3.0 mg/kg/injection, schedule: Q01DX009 (ip), vehicle: saline with Tween-80 100 % of control | dose: 3.0 mg/kg/injection, schedule: Q04DX003 (ip), vehicle: saline with Tween-80 116 % of control | dose: 6.0 mg/kg/injection, schedule: Q01DX009 (ip), vehicle: saline with Tween-80 104 % of control | dose: 6.0 mg/kg/injection, schedule: Q04DX003 (ip), vehicle: saline with Tween-80 104 % of control

Cc1ccc(S(=O)(=O)N(C)CCC#N)cc1
inactive: [19] 97 % of control | [10] 100 % of control | [20] 96 % of control | [11] 98 % of control | dose: 400.0 mg/kg/injection, schedule: Q01DX009 (ip), vehicle: Klucel (hydroxypropylcellulose) (HPC) 96 % of control | [12] 96 % of control

Oc1cc2c3c(c1)-c1c(ccc(O)c1O)CC3NCC2 (stereo not given)
inactive: dose: 6.25 mg/kg/injection, schedule: Q04DX003 (ip), vehicle: DMSO 100 % of control | dose: 12.5 mg/kg/injection, schedule: Q04DX003 (ip), vehicle: DMSO 100 % of control | dose: 25.0 mg/kg/injection, schedule: Q04DX003 (ip), vehicle: DMSO 93 % of control | dose: 50.0 mg/kg/injection, schedule: Q04DX003 (ip), vehicle: DMSO 88 % of control

CC(C=C1CCCCC1)C(=O)O (stereo not given)
inactive: [2] 95 % of control | [3] 102 % of control | [4] 105 % of control | [5] 102 % of control | [6] 97 % of control | [7] 105 % of control

CCOP(=O)(CCO)OCC
inactive: dose: 50.0 mg/kg/injection, schedule: Q01DX005 (ip), vehicle: saline 106 % of control | dose: 100.0 mg/kg/injection, schedule: Q01DX005 (ip), vehicle: saline 106 % of control | dose: 200.0 mg/kg/injection, schedule: Q01DX005 (ip), vehicle: saline 95 % of control | dose: 400.0 mg/kg/injection, schedule: Q01DX005 (ip), vehicle: saline 104 % of control

Cc1cc([N+](=O)[O-])ccc1NS(=O)(=O)c1ccccc1
inactive: dose: 50.0 mg/kg/injection, schedule: Q01DX009 (ip), vehicle: Klucel (hydroxypropylcellulose) (HPC) 92 % of control | [19] 95 % of control | [10] 102 % of control | [20] 95 % of control | [11] 97 % of control
